From US5057325A, “Method of inhibiting replication of HIV with water-soluble melanins” (Vanderbilt University, priority 1990, dated 1991) come the findings set out here.

For the assay, the system named is HIV-1 (HTLV-IIIB). Type of assay: cell-based. The following applies: at 1-100 μg/ml; in these assays (HTLV-IIIB, HTLV-IIIRF, HIV-2ROD infection of MT-2 cells). From the text: The activity of the melanins for inhibiting replication of HIV can be confirmed by known assays, including particularly the assay described by Montefiori, et al., J. Clin. Microb., 26:231-235, 1988. That assay utilizes human T-cell lymphotropic virus type I-immortalized MT-2 cells as targets for infection. Cytolysis can be quantitated by vital dye uptake of poly-L-lysine-adhered cells as an endpoint for infection. The MT-cell assay has now been accepted as a standard screening test.
Antiviral activities of the synthetic water-soluble melanins derived as described in Example I from L-tyrosine, L-dopa, dopamine, serotonin, norepinephrine, L-dopa/glutathione, and L-dopa/ L-cysteine were measured in 96 well microdilution plates as described (Montefiori, et al., J. Clin. Microbiol. 26:231-235, 1988). Briefly, 2-fold serial dilutions of melanins were made in triplicate in a total of 100 ul growth medium (RPMI-1640 containing 12% heat-inactivated fetal bovine serum and 50 ug gentamicin/ml) per well. MT-2 cells (5×10^4) in 100 ul of growth medium were added to each well and incubated for 10 minutes. […] Viral-induced cytopathic effect (CPE) was quantitated 3 days later by vital dye (neutral red) uptake in remaining viable cells. […]

On to L-dopa, for which the antiviral activity result was “no antiviral activity”.

Regarding L-tyrosine, the antiviral activity entry is given as “no antiviral activity”.
